Numbered stars: 1 amine (or outer) side, 2 acyl side, 3 side chain; on linkers, the order of the positions; unused ones are H or OH. Bridge positions count the residues as written; N and C are the ends. Square brackets hold non-standard residues; d marks the D form. Side chains are listed from the residue outwards. Peptide text beside a SMILES is read from it. * marks the point of attachment. X1 = O=C([C@H](Cc1ccc(-n2nnc3c2-c2ccccc2CN([*:3])c2ccccc2-3)cc1)N[*:1])[*:2]; X2 = Cc1c(CC(=O)*)c(=O)oc2cc(N)ccc12; βAla = NCCC(=O)O
Columns and labels:
[1] = system: porcine pancreatic trypsin; experiment: Binding to commercial porcine pancreatic trypsin; conditions: Fig. S8
[2] = cited from earlier work

Compound	binding to porcine pancreatic trypsin ([1]; commercial trypsin)	effect of the fluorophore in loop 2 on biological activity ([1]; trypsin binding)	oral uterotonic activity [2]
CC[C@H](C)[C@@H]1NC(=O)[C@@H]2CSSC[C@@H]3NC(=O)[C@H](C(C)C)NC(=O)CNC(=O)CNC(=O)[C@H](CC(=O)O)NC(=O)[C@H](CO)NC(=O)CNC(=O)[C@H](CO)NC(=O)CNC(=O)[C@@H]4CSSC[C@H](NC(=O)[C@H](CC(=O)O)NC(=O)[C@H](CO)NC(=O)[C@H](Cc5ccc(-n6nnc7c6-c6ccccc6CN(C(=O)CCNC(=O)Cc6c(C)c8ccc(N)cc8oc6=O)c6ccccc6-7)cc5)NC(=O)[C@H](CCCNC(=N)N)NC(=O)[C@H](CCCNC(=N)N)NC(=O)[C@H](CSSC[C@H](NC1=O)C(=O)N[C@@H](CCCNC(=N)N)C(=O)NCC(=O)N[C@@H](CC(N)=O)C(=O)NCC(=O)N[C@@H](Cc1ccc(O)cc1)C(=O)N4)NC(=O)[C@H](CCCNC(=N)N)NC(=O)[C@H](CCC(N)=O)NC(=O)[C@H](CC(C)C)NC(=O)[C@H]([C@@H](C)CC)NC(=O)[C@H](CCCCN)NC(=O)[C@@H]1CCCN1C3=O)C(=O)N1CCC[C@H]1C(=O)NCC(=O)N[C@@H](C)C(=O)N2 [AMCA-labeled MCoTI-AziF] (cyclo(ACICRGNGYCGSGSDGGVCPKILQRCRR[X1]([βAla-X2])SDCPG); disulfide 2-19, 4-26, 10-32)	able to bind commercial porcine pancreatic trypsin efficiently	did not have a detrimental effect on its biological activity	
kalata B1: the first cyclotide to be discovered (GLPVCGETCVGGTCNTPGCTCSWPVCTRN; Kalata-B1; UniProt P56254 89-117, looked up)			orally effective uterotonic

Reference: PMC3767473 (Angewandte Chemie (International ed. in English), 2013)
